Results published in the supplement of paper PMC10011410.
± gives the standard deviation of the averaged measurements.

What follows are compounds tested on U-2 OS (assay: intracellular GSH:GSSG ratio (calculated); higher = more reduced glutathione pool). Conditions: 5 µM; 24 h.
In short: (§1)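 U-2 OS cells were plated at 750 per well in white low-volume 384-well plates, and after 24 h most compounds were added by pin tool at 20, 10 and 5 μM with 0.4% DMSO for 24 h at 37 °C. On separate plates, total glutathione and GSSG were measured with GSH/GSSG-Glo and viability with CellTiter-Glo, all by luminescence. The GSH/GSSG-Glo reagents were diluted three-fold in PBS, with GSH standards on every plate. After background and row/column correction, values are given relative to vehicle wells or as a calculated GSH:GSSG ratio, drawn from five replicate plates.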
`O=C(CCCCCCC(=O)Nc1ccccc1)NO` was tested, and the “intracellular GSH:GSSG ratio” value was 8.04.
With `Cn1c(SC2=CS(=O)(=O)c3ccccc32)nnc1-c1ccc(O)cc1` the “intracellular GSH:GSSG ratio” value was 10.2.
With `Cc1onc(C(=O)N2CCN(C(c3ccc(Cl)cc3)c3ccc(Cl)cc3)CC2)c1[N+](=O)[O-]` the “intracellular GSH:GSSG ratio” value was 21.
With `Cc1cc(NC(=O)c2cccc(NC(=O)/C=C/CN(C)C)c2)ccc1Nc1nccc(-c2cccnc2)n1` the “intracellular GSH:GSSG ratio” value was 23.3.
`c1ccc(-c2noc(NC3CCCC3)n2)cc1` was tested, and the “intracellular GSH:GSSG ratio” value was 28.5.
In the case of `O=[N+]([O-])c1c(Cl)cc(Cl)c2nsnc12`, the “intracellular GSH:GSSG ratio” value is reported as 13.9.
`O=C(/C(C(N1CC2=CC=CC=C2)=O)=C/C3=C(C)C=C(O)C=C3C)N(CC4=CC=CC=C4)C1=O` was tested, and the “intracellular GSH:GSSG ratio” value was 21.3.
In the case of `Oc1cccc(O)c1O`, the “intracellular GSH:GSSG ratio” value is reported as 22.7.

Same assay, conditions: 10 µM; 24 h
In the case of `O=C(CCCCCCC(=O)Nc1ccccc1)NO`, the “intracellular GSH:GSSG ratio” value is reported as 6.39.
In the case of `Cn1c(SC2=CS(=O)(=O)c3ccccc32)nnc1-c1ccc(O)cc1`, the “intracellular GSH:GSSG ratio” value is reported as 4.41.
`Cc1onc(C(=O)N2CCN(C(c3ccc(Cl)cc3)c3ccc(Cl)cc3)CC2)c1[N+](=O)[O-]` was tested, and the “intracellular GSH:GSSG ratio” value was 19.2.
For `Cc1cc(NC(=O)c2cccc(NC(=O)/C=C/CN(C)C)c2)ccc1Nc1nccc(-c2cccnc2)n1`, the “intracellular GSH:GSSG ratio” value was 21.
With `c1ccc(-c2noc(NC3CCCC3)n2)cc1` the “intracellular GSH:GSSG ratio” value was 30.3.
With `O=[N+]([O-])c1c(Cl)cc(Cl)c2nsnc12` the “intracellular GSH:GSSG ratio” value was 6.83.
For `O=C(/C(C(N1CC2=CC=CC=C2)=O)=C/C3=C(C)C=C(O)C=C3C)N(CC4=CC=CC=C4)C1=O`, the “intracellular GSH:GSSG ratio” value was 22.8.
`Oc1cccc(O)c1O` was tested, and the “intracellular GSH:GSSG ratio” value was 8.34.

Same assay, conditions: 20 µM; 24 h
`O=C(CCCCCCC(=O)Nc1ccccc1)NO` was tested, and the “intracellular GSH:GSSG ratio” value was 4.82.
With `Cn1c(SC2=CS(=O)(=O)c3ccccc32)nnc1-c1ccc(O)cc1` the “intracellular GSH:GSSG ratio” value was 2.8.
In the case of `Cc1onc(C(=O)N2CCN(C(c3ccc(Cl)cc3)c3ccc(Cl)cc3)CC2)c1[N+](=O)[O-]`, the “intracellular GSH:GSSG ratio” value is reported as 16.3.
With `Cc1cc(NC(=O)c2cccc(NC(=O)/C=C/CN(C)C)c2)ccc1Nc1nccc(-c2cccnc2)n1` the “intracellular GSH:GSSG ratio” value was 8.13.
`c1ccc(-c2noc(NC3CCCC3)n2)cc1` was tested, and the “intracellular GSH:GSSG ratio” value was 26.
In the case of `O=[N+]([O-])c1c(Cl)cc(Cl)c2nsnc12`, the “intracellular GSH:GSSG ratio” value is reported as 2.56.
In the case of `O=C(/C(C(N1CC2=CC=CC=C2)=O)=C/C3=C(C)C=C(O)C=C3C)N(CC4=CC=CC=C4)C1=O`, the “intracellular GSH:GSSG ratio” value is reported as 29.1.
`Oc1cccc(O)c1O` was tested, and the “intracellular GSH:GSSG ratio” value was 5.48.

Same assay, conditions: 40 µM; 24 h
For `O=C(/C(C(N1CC2=CC=CC=C2)=O)=C/C3=C(C)C=C(O)C=C3C)N(CC4=CC=CC=C4)C1=O`, the “intracellular GSH:GSSG ratio” value was 19.1.
For `Oc1cccc(O)c1O`, the “intracellular GSH:GSSG ratio” value was 1.66.

Same assay, conditions: 80 µM; 24 h
In the case of `O=C(/C(C(N1CC2=CC=CC=C2)=O)=C/C3=C(C)C=C(O)C=C3C)N(CC4=CC=CC=C4)C1=O`, the “intracellular GSH:GSSG ratio” value is reported as 12.4.

The compounds below were run on U-2 OS (assay: cell viability (CellTiter-Glo) relative to DMSO (% of control); higher = more viable). Conditions: 5 µM; 24 h.
In short: as §1
In the case of `O=C(CCCCCCC(=O)Nc1ccccc1)NO`, the cell viability is reported as 55.2 ± 5.3.
With `Cn1c(SC2=CS(=O)(=O)c3ccccc32)nnc1-c1ccc(O)cc1` the cell viability was 96.8 ± 4.4.
With `Cc1onc(C(=O)N2CCN(C(c3ccc(Cl)cc3)c3ccc(Cl)cc3)CC2)c1[N+](=O)[O-]` the cell viability was 88.8 ± 4.4.
`Cc1cc(NC(=O)c2cccc(NC(=O)/C=C/CN(C)C)c2)ccc1Nc1nccc(-c2cccnc2)n1` showed a cell viability of 102 ± 7.2.
Work on `c1ccc(-c2noc(NC3CCCC3)n2)cc1` yielded a cell viability of 95.5 ± 6.9.
`O=[N+]([O-])c1c(Cl)cc(Cl)c2nsnc12` gave a cell viability of 88.3 ± 13.
With `O=C(/C(C(N1CC2=CC=CC=C2)=O)=C/C3=C(C)C=C(O)C=C3C)N(CC4=CC=CC=C4)C1=O` the cell viability was 97 ± 6.9.
With `Oc1cccc(O)c1O` the cell viability was 82.2 ± 6.1.

Same assay, conditions: 10 µM; 24 h
With `O=C(CCCCCCC(=O)Nc1ccccc1)NO` the cell viability was 49.6 ± 3.
`Cn1c(SC2=CS(=O)(=O)c3ccccc32)nnc1-c1ccc(O)cc1` gave a cell viability of 66 ± 4.1.
`Cc1onc(C(=O)N2CCN(C(c3ccc(Cl)cc3)c3ccc(Cl)cc3)CC2)c1[N+](=O)[O-]` gave a cell viability of 92.4 ± 4.1.
Compound `Cc1cc(NC(=O)c2cccc(NC(=O)/C=C/CN(C)C)c2)ccc1Nc1nccc(-c2cccnc2)n1` has a cell viability of 98.9 ± 2.7.
Work on `c1ccc(-c2noc(NC3CCCC3)n2)cc1` yielded a cell viability of 101 ± 8.9.
Compound `O=[N+]([O-])c1c(Cl)cc(Cl)c2nsnc12` has a cell viability of 52.4 ± 10.
Work on `O=C(/C(C(N1CC2=CC=CC=C2)=O)=C/C3=C(C)C=C(O)C=C3C)N(CC4=CC=CC=C4)C1=O` yielded a cell viability of 98.1 ± 2.9.
Work on `Oc1cccc(O)c1O` yielded a cell viability of 35.7 ± 10.

Same assay, conditions: 20 µM; 24 h
Compound `O=C(CCCCCCC(=O)Nc1ccccc1)NO` has a cell viability of 44 ± 2.
`Cn1c(SC2=CS(=O)(=O)c3ccccc32)nnc1-c1ccc(O)cc1` gave a cell viability of 71.2 ± 4.6.
With `Cc1onc(C(=O)N2CCN(C(c3ccc(Cl)cc3)c3ccc(Cl)cc3)CC2)c1[N+](=O)[O-]` the cell viability was 84.1 ± 6.2.
`Cc1cc(NC(=O)c2cccc(NC(=O)/C=C/CN(C)C)c2)ccc1Nc1nccc(-c2cccnc2)n1` gave a cell viability of 78.6 ± 5.4.
With `c1ccc(-c2noc(NC3CCCC3)n2)cc1` the cell viability was 97 ± 6.5.
In the case of `O=[N+]([O-])c1c(Cl)cc(Cl)c2nsnc12`, the cell viability is reported as 19.5 ± 8.6.
`O=C(/C(C(N1CC2=CC=CC=C2)=O)=C/C3=C(C)C=C(O)C=C3C)N(CC4=CC=CC=C4)C1=O` showed a cell viability of 102 ± 6.1.
For `Oc1cccc(O)c1O`, the cell viability was 0.451 ± 0.23.

Same assay, conditions: 40 µM; 24 h
`O=C(/C(C(N1CC2=CC=CC=C2)=O)=C/C3=C(C)C=C(O)C=C3C)N(CC4=CC=CC=C4)C1=O` gave a cell viability of 70 ± 23.
